For 2 molecules, Kd and IC50 results are on record in PMC3787104, “A Purine Analog Synergizes with Chloroquine (CQ) by Targeting Plasmodium falciparum Hsp90 (PfHsp90)” (PLoS ONE, 2013).

Assay [1] concerns the target T1, P. falciparum Hsp90 (PfHsp90, PF07_0029) (Plasmodium falciparum, UniProt Q8IC05). In words: SPR (Biacore X), positive control; also full-length ATPase inhibition, […]. It counts as binding. The arrangement: gene PF3D7_0708400; full length also tested in ATPase assay. For orientation: Surface plasmon resonance follows binding to a sensor surface in real time, without labels.
Target sequence in this assay (Q8IC05 entry or part of it): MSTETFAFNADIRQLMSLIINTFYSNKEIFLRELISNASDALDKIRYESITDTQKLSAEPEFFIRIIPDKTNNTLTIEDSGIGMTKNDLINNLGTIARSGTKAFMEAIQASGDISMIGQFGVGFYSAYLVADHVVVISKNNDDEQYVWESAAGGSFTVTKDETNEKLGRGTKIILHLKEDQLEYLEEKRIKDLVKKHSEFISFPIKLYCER

Assay [2] addresses T1, P. falciparum Hsp90 (PfHsp90, PF07_0029). The assay is described as follows: coupled LDH/NADH ATPase assay, positive control. It is filed as biochemical. Further details: gene PF3D7_0708400; full-length PfHsp90.
Target sequence in this assay (Q8IC05 1-745): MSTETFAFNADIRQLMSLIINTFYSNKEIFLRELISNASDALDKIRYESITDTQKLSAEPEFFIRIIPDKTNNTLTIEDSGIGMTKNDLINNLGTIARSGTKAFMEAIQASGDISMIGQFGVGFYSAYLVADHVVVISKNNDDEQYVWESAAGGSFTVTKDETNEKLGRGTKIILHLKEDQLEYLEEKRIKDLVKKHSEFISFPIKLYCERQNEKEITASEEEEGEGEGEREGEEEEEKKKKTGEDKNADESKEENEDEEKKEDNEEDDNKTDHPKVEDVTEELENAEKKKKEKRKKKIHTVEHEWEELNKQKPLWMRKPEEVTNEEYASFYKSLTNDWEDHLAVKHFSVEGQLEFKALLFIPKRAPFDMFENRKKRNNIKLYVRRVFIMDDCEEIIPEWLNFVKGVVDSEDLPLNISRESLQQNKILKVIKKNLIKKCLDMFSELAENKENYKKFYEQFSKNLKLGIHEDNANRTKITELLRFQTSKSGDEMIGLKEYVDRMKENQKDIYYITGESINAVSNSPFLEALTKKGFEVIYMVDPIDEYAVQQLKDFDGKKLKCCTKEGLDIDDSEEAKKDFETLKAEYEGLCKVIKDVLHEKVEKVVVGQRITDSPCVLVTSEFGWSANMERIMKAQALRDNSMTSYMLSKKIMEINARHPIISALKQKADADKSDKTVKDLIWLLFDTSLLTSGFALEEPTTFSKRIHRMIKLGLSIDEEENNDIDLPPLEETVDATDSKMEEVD

Usually Kd stands for the free concentration of one partner at which half of the binding sites on the other are occupied at equilibrium, for simple one-to-one binding. A low value points to a tighter complex. `C=CCNC1=C2C[C@@H](C)C[C@H](OC)[C@H](O)[C@@H](C)/C=C(\C)[C@H](OC(N)=O)[C@@H](OC)/C=C\C=C(/C)C(=O)NC(=CC1=O)C2=O` [17-AAG] registered a Kd in assay [1] of 105 ± 0.33 µM.
What is called IC50 is the concentration needed to halve the response being measured. Molecule `C[C@@H]1C[C@H]2O[C@@H]2/C=C\C=C\C(=O)Cc2c(Cl)c(O)cc(O)c2C(=O)O1` [radicicol] returned an IC50 in assay [2] of 0.144 µM.
